“Also recorded” adds a separate entry of the source. Where two headings read alike, the source gives them in different places.
Tests used:
[1] = test system: testosterone, DHEA and allopregnanolone; assay: Conversion in downstream steroids, dogs (GC/MS-MS); format: in vivo; settings: male and female dogs; acute or repeated (28 days) 2, 9 and 36 mg/kg
Method: (§1) In all these studies plasma concentrations of steroids were measured by gas chromatography-tandem mass spectrometry (GC/MS-MS).

[2] = test system: human chromosome aberration; assay: Human Chromosome Aberration test +/- metabolic activation (GLP); format: cell-based; settings: highest concentration tested between 74 and 100 μM
Description: […].

UGT1A1 = UGT1A1 (Homo sapiens, UniProt P22309); assay: UGT1A1 inhibition (recombinant, scopoletin substrate) assay; format: in vitro ADME; settings: 10 μM
Method: The reaction is initiated by adding the co-factor uridine-diphosphoglucuronic acid (UDPGA), the incubation is continued for 60 minutes and relative fluorescence intensity (RFI) is measured on a fluorescent plate reader.

CYP1A2 = assay: CYP induction (mRNA level); format: in vitro ADME; settings: 10 nM, 100 nM and 1 μM
[3] = Distribution in the brain of rats; format: in vivo; settings: rat, oral, 1.6 mg/kg, per os
Method: Distribution of 3pMBP in the brain was studied in mice and rats. In dogs, 3pMBP was also administered intravenously after solubilisation in cyclodextrine.

[4] = test system: THC-induced increase in food intake; assay: THC-induced increase in food intake (fasting-refeeding model); format: in vivo; settings: mice
Method: The effects of THC on food intake were studied using the fasting-refeeding model (Bellochio et al., 2010) in CB1^f/f male mice. […] Food intake was measured for one hour. Independent groups of animals (at least n=8 per group) were used for each treatment condition.

[5] = test system: testosterone, DHEA and allopregnanolone; assay: Conversion in downstream steroids, rats (GC/MS-MS); format: in vivo; settings: male and female rats; acute or repeated (28 days) 2, 9 and 36 mg/kg
Method: as §1

[6] = Pharmacokinetics in plasma of dogs (LC/MS-MS); format: in vivo; settings: for T1/2: manual linear regression on the last three points
THC dependent mice = assay: Precipitated withdrawal in mice chronically treated with THC; format: in vivo; settings: mice repeatedly treated with THC 20 mg/kg ip; Rimo 10 mg/kg ip; 3pMBP […] per os
Method: The chronic THC regimen (20 mg/kg, twice a day) used in these experiments has been chosen because it mimics heavy marijuana use (Cook et al., 1998) and is considered as a model of cannabinoids dependence in mice (Cutando et al., 2013; Hutcheson et al., 1998). […] From day 1 to 4-5, mice were injected ip with vehicle or THC (20 mg/kg in NaCl 0.9% containing 2% ethanol and 2% Tween80, 10 ml/kg) twice a day. […] All the other animals received the administration of the respective vehicle. […] The dose and schedule of administration of rimonabant chosen for this study has been commonly used to precipitate THC withdrawal in mice (Cook et al. 1998, Hutcheson et al., 1998, Huang et al., 2009).
For the measure of precipitated withdrawal, mice were placed in a novel home cage and a video camera positioned in front of each cage recorded animals' behaviors. Scoring was performed for 1 minute every 5 min-period. Two withdrawal signs were analyzed: paw tremors and head shaking, since they are the most common signs of THC withdrawal observed in mice (Cook et al. 1998, Hutcheson et al., 1998, Lichtman et al., 2001).

OAT3 = OAT3 (Homo sapiens, UniProt Q8TCC7); assay: Cellular transporter inhibition, CHO cells (fluorometry); settings: 10 μM
Method: Chinese Hamster Ovary (CHO) were used for all transporters except for P-gp that was studied in Madin-Darby Canine Kidney (MDR1-MDCKII) cells. The inhibition of the activity of each transporter is evaluated by measuring changes in the transport of their specific substrates by fluorometry.

[7] = test system: 85 receptors (CEREP High-throughput profile+4 steroid receptors+Cannabinoid type 2 receptor); assay: CEREP High-throughput binding profile (85 receptors)
Description: The CEREP High-throughput profile consists of a broad collection of 80 transmembrane and soluble receptors, ion channels and G-Protein coupled receptors.

[8] = test system: diet-induced obese (DIO) mouse model; assay: Repeated treatment: food intake and body weight in diet-induced obese (DIO) mice; format: in vivo; settings: vs vehicle; Rimo 10 mg/kg ip; 3pMBP 0.005-15 mg/kg per os
conscious rats = assay: Respiration in the unrestrained conscious rat (whole body plethysmography, GLP); settings: 2, 9 and 36 mg/kg, single oral
Method: The day prior to the study, animals were only allowed to drink water. On the study day, animals were placed in the plethysmograph and measurements started immediately afterwards. The whole body plethysmography method measure in a closed chamber variations in air flow due to thoracic cage movements during respiration and enables the measurement of respiratory parameters in the conscious animal, totally free to move about. […] Respiration was recorded for a total period of 6 hours following the dosing. Respiratory parameters were determined from analysis of respiratory cycles.

[9] = Metabolic stability in human liver microsomes (HLM); format: in vitro ADME; settings: human LM, NADPH
Method: The investigation was performed on liver microsomes (LM) coming from mouse (MLM), rat (RLM), dog (DLM) and human (HLM).
3pMBP was incubated with liver microsome pools supplemented with NADPH as cofactor. Samples were taken at 5 different times (0, 10, 20, 30 and 60 minutes) and samples were monitored for parent compound disappearance in MRM mode using LC/MS-MS. The Intrinsic Clearance and half-life have been determined. Verapamil was used as reference compound.

[10] = test system: THC-induced object recognition impairment; assay: THC-induced impairment of long-term memory (object recognition test); settings: per os 3 h before THC 6 mg/kg ip; mice
Description: Ten minutes before THC injection, mice were allowed to explore 2 identical objects in an “L”-shaped maze. The day after, one object was replaced by a novel one. […] The comparison of the time spent exploring the familiar and the novel objects is used as an index of discrimination between familiarity and novelty. Therefore, this parameter is used to evaluate object recognition performances.

[11] = test system: diet-induced obese (DIO) mouse model; assay: Repeated treatment: food intake and body weight in diet-induced obese (DIO) mice; format: in vivo
Method: Male C57BL/6J mice were fed ad libitum with a high-fat diet (HFD) for 8 weeks before the start of the pharmacological treatments. During pharmacological treatments, the HFD was maintained and food intake and body weight were measured daily. The food consumed was calculated by subtracting the food left in the hoppers from the initial pre-weighted amount. […] 3pMBP and rimonabant were administered by oral gavage once a day, two hours before the start of the dark phase of the light/dark cycle.

CYP 2C9 = CYP 2C9 (Homo sapiens, UniProt P11712); assay: CYP inhibition in human liver microsomes; settings: 10 μM
Description: Reaction was initiated by adding NADPH-generating compounds and after stopping of reaction and samples treatment; HPLC-UV/VIS and HPLC-MS/MS detection were used for detection of peak areas corresponding to the metabolite of each substrate.

[12] = per os 3 h before THC 1 mg/kg ip

CYP 2C9, sequence (P11712 whole entry): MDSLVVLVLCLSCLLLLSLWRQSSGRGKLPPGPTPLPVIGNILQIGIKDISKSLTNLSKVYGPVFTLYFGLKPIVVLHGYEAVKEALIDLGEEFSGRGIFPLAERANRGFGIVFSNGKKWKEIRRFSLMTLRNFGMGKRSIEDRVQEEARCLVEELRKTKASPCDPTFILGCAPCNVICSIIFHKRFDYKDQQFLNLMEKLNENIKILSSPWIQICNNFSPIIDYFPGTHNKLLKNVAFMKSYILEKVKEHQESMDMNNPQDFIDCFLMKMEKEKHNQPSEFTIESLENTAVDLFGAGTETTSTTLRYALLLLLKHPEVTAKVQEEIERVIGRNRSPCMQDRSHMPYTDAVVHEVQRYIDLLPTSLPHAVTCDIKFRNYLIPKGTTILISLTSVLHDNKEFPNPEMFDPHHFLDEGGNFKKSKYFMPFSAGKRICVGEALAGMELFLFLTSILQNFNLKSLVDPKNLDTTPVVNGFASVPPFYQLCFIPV
OAT3, sequence (Q8TCC7 whole entry): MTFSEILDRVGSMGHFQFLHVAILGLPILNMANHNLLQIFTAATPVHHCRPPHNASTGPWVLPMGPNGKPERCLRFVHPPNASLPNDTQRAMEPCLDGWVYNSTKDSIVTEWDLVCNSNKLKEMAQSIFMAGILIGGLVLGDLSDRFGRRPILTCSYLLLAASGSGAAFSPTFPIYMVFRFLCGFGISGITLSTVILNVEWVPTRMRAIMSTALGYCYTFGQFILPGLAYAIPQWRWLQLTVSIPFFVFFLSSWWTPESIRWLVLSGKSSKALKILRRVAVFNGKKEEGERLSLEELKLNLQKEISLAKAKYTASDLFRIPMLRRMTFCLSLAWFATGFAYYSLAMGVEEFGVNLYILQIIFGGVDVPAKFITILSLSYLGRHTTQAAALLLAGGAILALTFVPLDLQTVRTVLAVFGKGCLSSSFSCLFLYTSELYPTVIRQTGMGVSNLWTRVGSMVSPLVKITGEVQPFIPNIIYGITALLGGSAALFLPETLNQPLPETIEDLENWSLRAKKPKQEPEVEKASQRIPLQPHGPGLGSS
UGT1A1, sequence (P22309 26-533): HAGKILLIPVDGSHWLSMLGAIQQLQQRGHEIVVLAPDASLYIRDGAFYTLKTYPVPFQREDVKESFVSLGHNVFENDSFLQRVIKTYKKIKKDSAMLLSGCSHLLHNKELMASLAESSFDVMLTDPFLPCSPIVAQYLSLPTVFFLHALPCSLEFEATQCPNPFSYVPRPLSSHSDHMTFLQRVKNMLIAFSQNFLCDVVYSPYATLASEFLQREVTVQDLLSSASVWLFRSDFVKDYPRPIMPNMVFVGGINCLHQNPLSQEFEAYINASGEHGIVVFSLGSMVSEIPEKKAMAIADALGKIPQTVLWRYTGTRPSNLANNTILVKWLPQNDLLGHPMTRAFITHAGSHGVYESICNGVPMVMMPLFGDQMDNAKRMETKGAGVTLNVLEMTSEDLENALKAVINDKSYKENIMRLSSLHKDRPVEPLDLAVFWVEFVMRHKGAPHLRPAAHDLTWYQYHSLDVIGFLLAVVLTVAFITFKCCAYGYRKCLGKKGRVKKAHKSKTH

With `COc1ccc(CO[C@H]2CC[C@@]3(C)C(=CC[C@H]4[C@@H]5CC[C@H](C(C)=O)[C@@]5(C)CC[C@@H]43)C2)cc1` [3pMBP, 3β-(4-methoxybenzyloxy)pregn-5-en-20-one] the “Plasma concentrations of testosterone, DHEA and allopregnanolone” value [1] was “no effect”, the Genotoxicity [2] was “did not show any cytotoxicity, genotoxicity and mutagenesis” and the “Activity of UGT1A1” value (UGT1A1) was “did not modify the activity”. For the same molecule, the “Expression of CYP1A2” value (CYP1A2) was “did not increase the expression”, the Tmax [3] was 7 h and the “% inhibition” value [4, 12] was 100%. For the same molecule, the ID50 [4, 12] was 0.015 mg/kg, the ID100 [4, 12] was 0.05 mg/kg and the ID50 ([4]; per os, THC 1 mg/kg) was “≈ 15 μg/kg”. The ID100 ([4]; per os, THC 1 mg/kg) was “≈ 50 μg/kg”, the “Plasma concentrations of testosterone, DHEA and allopregnanolone” value [5] was “no effect” and the bioavailability [6] was 68%. It also gave a bioavailability ([6]; both sexes, dog, plasma, oral, 0.7 mg/kg, read-out: bioavailability) of ~68%, a Tmax ([6]; both sexes, dog, po, per os, 0.7 mg/kg, plasma, read-out: Tmax) of ~3 h and an AUClast ([6]; iv, 0.7 mg/kg, plasma) of 2.192 µg·h/mL. For the same molecule, the Cmax ([6]; iv, 0.7 mg/kg, plasma) was 0.505 µg/mL, the Tmax ([6]; iv, 0.7 mg/kg, plasma) was 0.125 h and the T1/2 ([6]; iv, 0.7 mg/kg, plasma) was 35.9 h. The AUClast ([6]; per os, 0.7 mg/kg, plasma) was 1.4525 µg·h/mL, the Cmax ([6]; per os, 0.7 mg/kg, plasma) was 0.1377 µg/mL and the Tmax ([6]; per os, 0.7 mg/kg, plasma) was 2.67 h. For the same molecule, the T1/2 ([6]; per os, 0.7 mg/kg, plasma) was 28.0 h, the “Duration of paw tremors” value (THC dependent mice) was “but not 3pMBP (0.15 mg/kg; per os) increases the duration of paw tremors” and the “Activity of OAT3” value (OAT3) was “did not modify the activity”. The “Modification of ligand binding” value ([7]; 10 μM) was “did not modify the binding of any of the 85 receptors; also recorded: did not modify the binding of these receptors or of any of the other receptors”, the IC50 ([7]; receptor binding, 85 receptors, read-out: ID50 (the source's name)) was > 10 µM and the “Body weight in obese mice” value [8] was “but not 3pMBP (0.005, 0.015, 0.05, 5 and 15 mg/kg; per os), decreases body weight”. For the same molecule, the Respiration (conscious rats) was “did not modify”, the half-life [9] was 6.83 h and the microsomal CLint ([9]; read-out: intrinsic clearance) was 3.38 µL/min/mg. For the same molecule, the “% inhibition” value [10] was 100%, the ID50 [10] was <0.005 mg/kg and the “Inhibition of food-intake and body weight (repeated administration): Effect (3pMBP)” value ([11]; male mice, highest dose tested 15 mg/kg) was “at none of the dose tested did modify food intake or body weight and No”. The “Food intake in obese mice” value ([11]; vs vehicle, Rimo 10 mg/kg ip, 3pMBP 0.005-15 mg/kg per os) was “but not 3pMBP (0.005, 0.015, 0.05, 5 and 15 mg/kg; per os), decreases food intake” and the “Inhibition of CYP 2C9 activity” value (CYP 2C9) was “no significant inhibition”.
